Four molecules from patent US7396624B2, “Electrophotographic photoreceptor containing naphthalenetetracarboxylic acid diimide derivatives and electrophotographic imaging apparatus employing the same” (Samsung Electronics Co., Ltd., priority 2004, dated 2008) can be followed below.

SMILES strings stand for the structures.

A short description of this data set: Solubility Test (amount of methylene chloride to completely dissolve 1 g of compound). Format: physicochemical. To be noted: room temperature, methylene chloride added dropwise while stirring. As to the method: 1 g of the compound to be tested was added to a test tube at room temperature and methylene chloride was added dropwise while stirring to determine the amount of methylene chloride required to completely dissolve 1 g of the test compound.
Consider `CC(C)N1C(=O)c2ccc3c4c(ccc(c24)C1=O)C(=O)N(C(C)C)C3=O` [Comparative Compound (9a)], for which the “Amount of methylene chloride required to dissolve 1 g of a compound” value was 25 g.
For `CCC(CC)N1C(=O)c2ccc3c4c(ccc(c24)C1=O)C(=O)N(C(CC)CC)C3=O` [Comparative Compound (10a)] the value was 17.5 g; for `CC(c1ccccc1)N1C(=O)c2ccc3c4c(ccc(c24)C1=O)C(=O)N(C(C)c1ccccc1)C3=O` (stereo not shown) [Compound (1)], 3.5 g; for `CCC(c1ccccc1)N1C(=O)c2ccc3c4c(ccc(c24)C1=O)C(=O)N(C(CC)c1ccccc1)C3=O` (stereo not shown) [Compound (2)], 2 g.
